# Key:
# [1] = test system: H. pylori (ATCC 43504); assay: H. pylori-proliferation inhibitory effect (OD 600 nm versus negative control); format: cell-based, Helicobacter pylori
# Experimental: The effect of GlcNAc alpha-O-Et on H. pylori was confirmed according to the following procedures. Bacterial cells of H. pylori (ATCC 43504) stored in a brucella broth culture medium frozen at −80° C. were cultured in the same culture medium (3 mL) supplemented with 10% equine serum at 35° C. in the presence of 15% CO2 for 40 hours according to the shaking culture technique, the movement of bacterial cells was observed under a microscope and non-coccoid type bacterial cells of H. pylori were recovered. The culture medium was inspected for the OD values at 600 nm, followed by the dilution thereof with Muller-Hinton culture medium supplemented with 5.5% equine serum such that the number of bacterial cells present therein was equal to 4×10^7, and 3 mL thereof in total was cultured at 35° C. in the presence of 15% CO2 for 24 hours according to the shaking culture technique, followed by the confirmation by a microscope to thus give an H. pylori-containing culture medium (bacterial cell density: 2×10^7/mL) used in the test for the confirmation of the effect of the foregoing compound. On the other hand, there were prepared Muller-Hinton culture mediums (free of any bacterial cell of H. pylori) each containing 902.6 μM to 14.4 mM of the foregoing GlcNAc alpha-O-Et and supplemented with 5% equine serum, each of the resulting culture mediums was added to the foregoing H. pylori-containing culture medium in a mixing ratio of 1:1 (by volume) (total volume: 100 μL each; on a 96-well plate), followed by the mixing thereof and the subsequent cultivation at 35° C. in the presence of 15% CO2 for 96 hours. After the cultivation thereof over a predetermined period of time, the bacterial cell density thus proliferated was determined by the determination of the OD values at 600 nm, followed by the comparison of the result observed for the sample to which the candidate compound was added with that observed for the negative control free of any candidate compound (the control depicted in FIG. 1) to thus evaluate the proliferation inhibitory effect of the compound. In this respect, 1 U herein means 2.9 μmol/mL. The effect of GlcNAc alpha-cholestanol on H. pylori was confirmed according to the following procedures. Bacterial cells of H. pylori (ATCC 43504) stored in a brucella broth culture medium frozen at −80° C. were cultured in the same culture medium (3 mL) supplemented with 10% equine serum at 35° C. in the presence of 15% CO2 for 40 hours according to the shaking culture technique, the movement or behavior of bacterial cells was observed under a microscope and non-coccoid type bacterial cells of H. pylori were recovered. […]
# [2] = Decomposition in culture mediums and the stomach; conditions: within the culture mediums and the stomach
decomposition (stability) [2],Compound,proliferation ability of H. pylori ([1]; culture medium containing not less than 1.8 mM),inhibition of the proliferation of H. pylori ([1]; culture medium containing not less than 7.2 mM),"H. pylori proliferation inhibited ([1]; not less than 625 mU/mL (1.8 mM), FIG. 1, cultivation up to 96 hours)","inhibition at 180 µM ([1]; Helicobacter pylori, ATCC43504, at least 62.5 mU/mL (180 μM, nominal, insoluble fraction filtered off), within 1.5 to 2 days, FIG. 2) [%]"
never decomposed,"CCO[C@H]1OC(CO)[C@@H](O)[C@H](O)C1NC(C)=O (stereo partly drawn) [Compound 1, Ethoxy 2-acetamide-2-deoxy-N-acetyl-alpha-D-glucosaminide]",not more than 50%,completely inhibit,not less than 50%,
,"CC(=O)NC1[C@@H](O[C@H]2CC[C@@]3(C)C(CCC4C3CC[C@@]3(C)C4CC[C@@H]3[C@H](C)CCCC(C)C)C2)OC(CO)[C@@H](O)[C@@H]1O (stereo partly drawn) [Compound 2, 3-beta-Cholestanyl-2-Acetamide-2-Deoxy-N-Acetyl-alpha-D-Glucosaminide]",,,,40 to 50

# Source: patent publication US20100197616A1, “Proliferation inhibitor of helicobacter pylori including alpha-n-acetyl-glucosaminyl bond-containing monosaccharide derivatives” (THE NOGUCHI INSTITUTE, priority 2007, published 2010)
